Data taken from patent US20110028518A1, “DEXLANSOPRAZOLE PROCESS AND POLYMORPHS” (DR. REDDY'S LABORATORIES LTD., priority 2008, published 2011).
Blank lines part the entries; values can stand above or below the compound they belong to.

Experiment: Storage stability studies (Example 27): appearance, PXRD, HPLC purity, impurities and chiral purity
Assay type: physicochemical
Details: for Chiral Purity / Highest Impurity / Purity / Sulfide / Sulfone: HPLC
Text: A high performance liquid chromatography (HPLC) method for measuring the chemical purity of dexlansoprazole or a compound of formula (VII) of the present application, and for determination of their corresponding impurities, involves the use of a YMC-PAK ODS-A 100×4.6, 3 μm or equivalent column.
A high performance liquid chromatography method useful for measuring the enantiomeric purity of dexlansoprazole or a compound of formula (VII) of the present application involves the use of a Chiralpak-IC, 250×4.6 mm or equivalent column.
Products from certain of the above examples and a crystalline dexlansoprazole, prepared according to Example 2 of U.S. Pat. No. 6,462,058, were tested for their storage stabilities. The samples were stored in tied clear polyethylene bags that were placed in sealed black polyethylene bags along with a silica gel desiccant pouch filled with nitrogen, and finally the black bags were placed into triple laminated foil bags along with a silica gel pouch and then sealed and stored in HDPE drum packages under the conditions noted in the following results tables. Samples were analyzed before storage, at intervals during storage, and after storage.
Samples were analyzed by HPLC for chemical purity, for:
a “sulfide” impurity, having a chemical name 2-[[{4-(2,2,2-trifluoroethoxy)-3-methylpyridine-2-yl}methyl]thio]-1H-benzimidazole and the following structure;
a “sulfone” impurity, having a chemical name 2-[[{4-(2,2,2-trifluoroethoxy)-3-methylpyridine-2-yl}methyl]sulfonyl]-1H-benzimidazole and the following structure;
and for chiral purity. Also given in the tables is the concentration of the highest unidentified impurity, as determined by HPLC, and the PXRD analysis result. All percentages given below are expressed on a weight basis.

[1] = Initial Analysis, before storage

Appearance (After 1 Week at 2-8° C.): Light brown | PXRD (After 1 Week at 2-8° C.): Amorphous | Chiral Purity (After 1 Week at 2-8° C.): 96.57% | Highest Impurity (After 1 Week at 2-8° C.): 0.09% | Purity (After 1 Week at 2-8° C.): 83.76% | Sulfide (After 1 Week at 2-8° C.): 13.78% | Sulfone (After 1 Week at 2-8° C.): 1.48% | Appearance (After 1 Week at 25-35° C.): Light brown | PXRD (After 1 Week at 25-35° C.): Amorphous | Chiral Purity (After 1 Week at 25-35° C.): 96.56% | Highest Impurity (After 1 Week at 25-35° C.): 0.14% | Purity (After 1 Week at 25-35° C.): 83.03% | Sulfide (After 1 Week at 25-35° C.): 13.83% | Sulfone (After 1 Week at 25-35° C.): 1.55% | Appearance (After 2 Weeks at 2-8° C.): Light brown | PXRD (After 2 Weeks at 2-8° C.): Amorphous | Chiral Purity (After 2 Weeks at 2-8° C.): 96.86% | Highest Impurity (After 2 Weeks at 2-8° C.): 0.17% | Purity (After 2 Weeks at 2-8° C.): 83.6% | Sulfide (After 2 Weeks at 2-8° C.): 13.63% | Sulfone (After 2 Weeks at 2-8° C.): 1.45% | Appearance (After 2 Weeks at 25-35° C.): Light brown | PXRD (After 2 Weeks at 25-35° C.): Amorphous | Chiral Purity (After 2 Weeks at 25-35° C.): 96.49% | Highest Impurity (After 2 Weeks at 25-35° C.): 1.16% | Purity (After 2 Weeks at 25-35° C.): 80.85% | Sulfide (After 2 Weeks at 25-35° C.): 13.8% | Sulfone (After 2 Weeks at 25-35° C.): 1.49% | Appearance (After 3 Weeks at 2-8° C.): Light brown | PXRD (After 3 Weeks at 2-8° C.): Amorphous | Chiral Purity (After 3 Weeks at 2-8° C.): 96.73% | Highest Impurity (After 3 Weeks at 2-8° C.): 0.07% | Purity (After 3 Weeks at 2-8° C.): 83.9% | Sulfide (After 3 Weeks at 2-8° C.): 13.69% | Sulfone (After 3 Weeks at 2-8° C.): 1.5% | Appearance (After 3 Weeks at 25-35° C.): Light brown | PXRD (After 3 Weeks at 25-35° C.): Amorphous | Chiral Purity (After 3 Weeks at 25-35° C.): 96.67% | Highest Impurity (After 3 Weeks at 25-35° C.): 0.8% | Purity (After 3 Weeks at 25-35° C.): 82.07% | Sulfide (After 3 Weeks at 25-35° C.): 13.69% | Sulfone (After 3 Weeks at 25-35° C.): 1.51% | Appearance [1]: Light brown | PXRD [1]: Amorphous | Chiral Purity [1]: 96.59% | Highest Impurity [1]: 0.08% | Purity [1]: 84.42% | Sulfide [1]: 13.43% | Sulfone [1]: 1.45%
Structure (SMILES): Cc1c(OCC(F)(F)F)ccnc1C[S@@+]([O-])c1nc2ccccc2[nH]1 [Example 16 (A), dexlansoprazole]

Appearance (After 1 Week at 2-8° C.): Cream color | PXRD (After 1 Week at 2-8° C.): Crystalline | Chiral Purity (After 1 Week at 2-8° C.): 88.02% | Highest Impurity (After 1 Week at 2-8° C.): 0.14% | Purity (After 1 Week at 2-8° C.): 95.39% | Sulfide (After 1 Week at 2-8° C.): 2.48% | Sulfone (After 1 Week at 2-8° C.): 1.68% | Appearance (After 1 Week at 25-35° C.): Cream color | PXRD (After 1 Week at 25-35° C.): Crystalline | Chiral Purity (After 1 Week at 25-35° C.): 87.8% | Highest Impurity (After 1 Week at 25-35° C.): 0.14% | Purity (After 1 Week at 25-35° C.): 95.28% | Sulfide (After 1 Week at 25-35° C.): 2.48% | Sulfone (After 1 Week at 25-35° C.): 1.77% | Appearance (After 2 Weeks at 2-8° C.): Cream color | PXRD (After 2 Weeks at 2-8° C.): Crystalline | Chiral Purity (After 2 Weeks at 2-8° C.): 88.49% | Highest Impurity (After 2 Weeks at 2-8° C.): 0.13% | Purity (After 2 Weeks at 2-8° C.): 95.19% | Sulfide (After 2 Weeks at 2-8° C.): 2.36% | Sulfone (After 2 Weeks at 2-8° C.): 1.62% | Appearance (After 2 Weeks at 25-35° C.): Cream color | PXRD (After 2 Weeks at 25-35° C.): Crystalline | Chiral Purity (After 2 Weeks at 25-35° C.): 88.34% | Highest Impurity (After 2 Weeks at 25-35° C.): 0.13% | Purity (After 2 Weeks at 25-35° C.): 95.19% | Sulfide (After 2 Weeks at 25-35° C.): 2.36% | Sulfone (After 2 Weeks at 25-35° C.): 1.62% | Appearance (After 3 Weeks at 2-8° C.): Cream color | PXRD (After 3 Weeks at 2-8° C.): Crystalline | Chiral Purity (After 3 Weeks at 2-8° C.): 88.34% | Highest Impurity (After 3 Weeks at 2-8° C.): 0.14% | Purity (After 3 Weeks at 2-8° C.): 95.65% | Sulfide (After 3 Weeks at 2-8° C.): 2.31% | Sulfone (After 3 Weeks at 2-8° C.): 1.61% | Appearance (After 3 Weeks at 25-35° C.): Cream color | PXRD (After 3 Weeks at 25-35° C.): Crystalline | Chiral Purity (After 3 Weeks at 25-35° C.): 88.27% | Highest Impurity (After 3 Weeks at 25-35° C.): 0.13% | Purity (After 3 Weeks at 25-35° C.): 95.4% | Sulfide (After 3 Weeks at 25-35° C.): 2.39% | Sulfone (After 3 Weeks at 25-35° C.): 1.65% | Appearance [1]: Cream color | PXRD [1]: Crystalline | Chiral Purity [1]: 88.13% | Highest Impurity [1]: 0.15% | Purity [1]: 95.4% | Sulfide [1]: 2.41% | Sulfone [1]: 1.66%
Structure (SMILES): Cc1c(OCC(F)(F)F)ccnc1C[S@@+]([O-])c1nc2ccccc2[nH]1 [Crystalline Drug, dexlansoprazole]

Appearance (After 1 Week at 2-8° C.): Light yellow | PXRD (After 1 Week at 2-8° C.): Amorphous | Chiral Purity (After 1 Week at 2-8° C.): 99.89% | Highest Impurity (After 1 Week at 2-8° C.): 0.13% | Purity (After 1 Week at 2-8° C.): 97.21% | Sulfide (After 1 Week at 2-8° C.): 1.83% | Sulfone (After 1 Week at 2-8° C.): 0.63% | Appearance (After 1 Week at 25-35° C.): Light yellow | PXRD (After 1 Week at 25-35° C.): Amorphous | Chiral Purity (After 1 Week at 25-35° C.): 99.86% | Highest Impurity (After 1 Week at 25-35° C.): 0.14% | Purity (After 1 Week at 25-35° C.): 97.12% | Sulfide (After 1 Week at 25-35° C.): 1.84% | Sulfone (After 1 Week at 25-35° C.): 0.68% | Appearance (After 2 Weeks at 2-8° C.): Light yellow | PXRD (After 2 Weeks at 2-8° C.): Amorphous | Chiral Purity (After 2 Weeks at 2-8° C.): 99.87% | Highest Impurity (After 2 Weeks at 2-8° C.): 0.11% | Purity (After 2 Weeks at 2-8° C.): 97.21% | Sulfide (After 2 Weeks at 2-8° C.): 1.79% | Sulfone (After 2 Weeks at 2-8° C.): 0.63% | Appearance (After 2 Weeks at 25-35° C.): Light yellow | PXRD (After 2 Weeks at 25-35° C.): Amorphous | Chiral Purity (After 2 Weeks at 25-35° C.): 99.86% | Highest Impurity (After 2 Weeks at 25-35° C.): 0.11% | Purity (After 2 Weeks at 25-35° C.): 97.23% | Sulfide (After 2 Weeks at 25-35° C.): 0.63% | Sulfone (After 2 Weeks at 25-35° C.): 1.78% | Appearance (After 3 Weeks at 2-8° C.): Light yellow | PXRD (After 3 Weeks at 2-8° C.): Amorphous | Chiral Purity (After 3 Weeks at 2-8° C.): 99.85% | Highest Impurity (After 3 Weeks at 2-8° C.): 0.12% | Purity (After 3 Weeks at 2-8° C.): 97.27% | Sulfide (After 3 Weeks at 2-8° C.): 1.77% | Sulfone (After 3 Weeks at 2-8° C.): 0.62% | Appearance (After 3 Weeks at 25-35° C.): Light yellow | PXRD (After 3 Weeks at 25-35° C.): Amorphous | Chiral Purity (After 3 Weeks at 25-35° C.): 99.84% | Highest Impurity (After 3 Weeks at 25-35° C.): 0.15% | Purity (After 3 Weeks at 25-35° C.): 97% | Sulfide (After 3 Weeks at 25-35° C.): 1.79% | Sulfone (After 3 Weeks at 25-35° C.): 0.63% | Appearance [1]: Light yellow | PXRD [1]: Amorphous | Chiral Purity [1]: 99.86% | Highest Impurity [1]: 0.24% | Purity [1]: 97.14% | Sulfide [1]: 1.77% | Sulfone [1]: 0.61%
Structure (SMILES): Cc1c(OCC(F)(F)F)ccnc1C[S@@+]([O-])c1nc2ccccc2[nH]1 [Example 8, dexlansoprazole]
